From patent publication US10526291B2, “Potent dual BRD4-kinase inhibitors as cancer therapeutics” (H. Lee Moffitt Cancer Center and Research Institute, Inc., priority 2014, dated 2020)

Biological target: BRD4 (Homo sapiens, UniProt O60885)
Experiment: Differential Scanning Fluorimetry (DSF), stability of BRD4 upon ligand binding
Conditions: for ΔTm at 4 µM: 100 μM protein, 4 μM compound and 2% DMSO; for IC50: estimated
Method: DSF=Differential Scanning Fluorimetry; provides a measure of the increased stability of BRD4 upon ligand binding The DSF experiment was run at 100 μM protein, 4 μM compound and 2% DMSO.

| Structure (SMILES) | ΔTm at 4 µM | IC50 |
| --- | --- | --- |
| COc1cccc(Nc2nc(Nc3ccc(N4CCN(C)CC4)cc3)ncc2C)c1 | 3.2 ± 0.083 °C | 1850 nM |
| COc1cc(Nc2nc(Nc3ccc(N4CCN(C)CC4)cc3)ncc2Cl)c(OC)cc1Cl | 0.073 ± 0.13 °C | 20500 nM |
| CCOc1cc(Nc2nc(Nc3ccc(N4CCN(C)CC4)cc3)ncc2Cl)ccc1Cl | 3.7 ± 0.12 °C | 1300 nM |
| CN1CCN(c2ccc(Nc3ncc(C(N)=O)c(Nc4cccc(NS(=O)(=O)C5CC5)c4)n3)cc2)CC1 | 2.3 ± 0.073 °C | 3800 nM |
| CCCc1cnc(Nc2ccc(N3CCN(C)CC3)cc2)nc1Nc1ccc(Cl)c(OC)c1 | 3.1 ± 0.075 °C | 2000 nM |
| CN1CCN(c2ccc(Nc3ncc(F)c(Nc4ccc(C(=O)Nc5ccccc5)cc4)n3)cc2)CC1 | 0.35 ± 0.068 °C | 17000 nM |
| CCc1cnc(Nc2ccc(N3CCN(C)CC3)cc2)nc1Nc1cccc(S(=O)(=O)NC(C)C)c1 | 2.2 °C | 3990 nM |
| COc1ccc(Nc2nc(Nc3ccc(N4CCN(C)CC4)cc3)ncc2C)cc1OC | 5.6 ± 0.059 °C | 290 nM |
| Cc1cnc(Nc2ccc(C(=O)NC3CCN(C)CC3)c(F)c2)nc1Nc1ccc(Cl)c(NS(=O)(=O)C2(C)CC2)c1 | 10.9 ± 0.22 °C | 21 nM |
| Cc1cnc(Nc2ccc(N3CCN(C)CC3)c(Cl)c2)nc1Nc1ccc(Cl)c(NS(=O)(=O)C(C)(C)C)c1 | 9.54 ± 0.163 °C | 51.4 nM |
| Cc1cnc(Nc2ccc(N3CCN(C)CC3)cc2)nc1Nc1cccc(NC(=O)C2CC2)c1 | 4.6 ± 0.21 °C | 630 nM |
| CCOC(=O)c1cnc(Nc2ccc(N3CCN(C)CC3)cc2)nc1Nc1cccc(NS(=O)(=O)C(C)(C)C)c1 | 3.4 ± 0.12 °C | 1600 nM |
| Cc1cnc(Nc2cc(F)c(N3CCN(C)CC3)c(F)c2)nc1Nc1ccc(Cl)c(NS(=O)(=O)C2(C)CC2)c1 | 12.3 ± 0.167 °C | 8.6 nM |
| Cc1cnc(Nc2cc(F)c(N3CCN(C)CC3)c(F)c2)nc1Nc1cccc(NS(=O)(=O)C(C)(C)C)c1 | 12.8 ± 0.058 °C | 6.28 nM |
| Cc1cnc(Nc2ccc(N3CCN(C)CC3)cc2)nc1Nc1ccc2c(c1)OCO2 | 0.79 ± 0.079 °C | 12000 nM |
| CC(C)Oc1cccc(Nc2nc(Nc3ccc(N4CCN(C)CC4)cc3)ncc2Cl)c1 | 4.8 ± 0.12 °C | 540 nM |
| Cc1cnc(Nc2ccc(N3CCN(C)CC3)cc2)nc1Nc1cccc(OC(C)C)c1 | 6.6 ± 0.1 °C | 140 nM |
| Cc1ccc(Nc2nc(Nc3ccc(C4CCN(C)CC4)cc3)ncc2C)cc1S(=O)(=O)NC1CCC1 | 7.7 ± 0.17 °C | 58 nM |
| COc1cc(Nc2nc(Nc3ccc(C(=O)NC4CCN(C)CC4)cc3)ncc2C)cc(OC)c1Cl | 5.9 ± 0.063 °C | 2300 nM |
| Cc1cnc(Nc2ccc(C3CCN(C)CC3)cc2)nc1Nc1cccc(NS(=O)(=O)C(C)(C)C)c1 | 7.6 ± 0.28 °C | 61 nM |
| Cc1cnc(Nc2ccc(N3CCN(C)CC3)cc2)nc1Nc1ccc(Cl)c(NS(=O)(=O)CC(C)C)c1 | 7.28 ± 0.091 °C | 221 nM |
| Cc1cnc(Nc2ccc(N3CCN(C)CC3)cc2)nc1Nc1cccc(NS(=O)(=O)N(C)C)c1 | 3.3 ± 0.36 °C | 1800 nM |
| Cc1cnc(Nc2ccc(N3CCN(C)CC3)cc2)nc1Nc1cccc(NS(C)(=O)=O)c1 | 4.6 ± 0.13 °C | 630 nM |
| COc1cc(Nc2nc(Nc3ccc(N4CCN(C)CC4)cc3)ncc2Cl)cc(OC)c1Cl | 2 ± 0.42 °C | 4700 nM |

| Structure (SMILES) | ΔTm at 4 µM | IC50 |
| --- | --- | --- |
| CCOc1cccc(Nc2nc(Nc3ccc(N4CCN(C)CC4)cc3)ncc2Cl)c1 | 4.3 ± 0.12 °C | 790 nM |
| CC(C)NS(=O)(=O)c1cccc(Nc2nc(Nc3ccc(N4CCN(C)CC4)cc3)nc3c2CCC3)c1 | 3.8 ± 0.056 °C | 1200 nM |
| CN1CCN(c2ccc(Nc3nc4c(c(Nc5ccc(Cl)c(NS(=O)(=O)C6CC6)c5)n3)CCC4)cc2)CC1 | 4.6 ± 0.05 °C | 620 nM |
| Cc1cnc(Nc2ccc(C(=O)NC3CCN(C)CC3)cc2)nc1Nc1cccc(NS(=O)(=O)C(C)(C)C)c1 | 7.6 ± 0.047 °C | 62 nM |
| CC(C)NS(=O)(=O)c1cccc(Nc2nc(Nc3ccc(N4CCN(C)CC4)cc3)nc3c2COC3)c1 | 0.6 ± 0.14 °C | 14000 nM |
| CC(C)S(=O)(=O)Nc1cccc(Nc2nc(Nc3ccc(N4CCN(C)CC4)cc3)nc3c2COC3)c1 | 3.9 ± 0.24 °C | 1000 nM |
| Cc1cnc(Nc2ccc(N3CCN(C)CC3)cc2)nc1Nc1ccc(Cl)c(NS(=O)(=O)C2CC2)c1 | 7 ± 0.14 °C | 100 nM |
| CN1CCN(c2ccc(Nc3nc(Nc4cccc(S(=O)(=O)NC(C)(C)C)c4)c4ccccc4n3)cc2)CC1 | 2.6 ± 0.081 °C | 2900 nM |
| Cc1cnc(Nc2ccc(CC(=O)N3CCN(C)CC3)cc2)nc1Nc1ccc(C(=O)NC2CC2)cc1 | 6.8 ± 0.15 °C | 110 nM |
| CN1CCN(c2ccc(Nc3nc4c(c(Nc5cccc(NS(=O)(=O)C6CC6)c5)n3)COC4)cc2)CC1 | 1.3 ± 0.12 °C | 7900 nM |
| CN1CCN(c2ccc(Nc3ncc(Cl)c(Nc4ccc5c(c4)OCCO5)n3)cc2)CC1 | 2.6 ± 0.15 °C | 2940 nM |
| CN1CCN(c2ccc(Nc3ncc(F)c(Nc4ccc(C(=O)NC5CC5)cc4)n3)cc2)CC1 | 3.4 ± 0.27 °C | 1600 nM |
| Cc1cnc(Nc2ccc(N3CCN(C)CC3)cc2)nc1Nc1cccc(NC(=O)C(C)(C)C)c1 | 3.5 ± 0.19 °C | 1500 nM |
| CC(C)(C)NS(=O)(=O)c1cccc(Nc2nc(Nc3ccc(N4CCOCC4)cc3)ncc2Cl)c1 | -0.071 ± 0.042 °C | 22900 nM |
| Cc1cnc(Nc2ccc(N3CCN(C)CC3)cc2)nc1Nc1cccc(C(C)(C)C)c1 | 2.9 ± 0.12 °C | 2330 nM |
| Cc1cnc(Nc2ccc(C(=O)NC3CCN(C)CC3)c(F)c2)nc1Nc1ccc2c(c1)N(S(=O)(=O)C(C)(C)C)CCC2 | 11.4 ± 0.103 °C | 15.5 nM |
| Cc1ccc(Nc2nc(Nc3ccc(N4CCN(C)CC4)cc3)ncc2C)cc1S(=O)(=O)NC(C)(C)C | 8.6 ± 0.09 °C | 30 nM |
| COc1ccc(Nc2nc(Nc3ccc(N4CCN(C)CC4)cc3)ncc2Cl)cc1OC | 5.1 ± 0.039 °C | 430 nM |
| CN1CCN(c2ccc(Nc3ncc(C(N)=O)c(Nc4cccc(S(=O)(=O)NC(C)(C)C)c4)n3)cc2)CC1 | 2.7 ± 0.0089 °C | 2700 nM |
| CN1CCN(c2ccc(Nc3ncc(C(F)(F)F)c(Nc4cccc(S(=O)(=O)NC(C)(C)C)c4)n3)cc2)CC1 | 0.2 ± 0.082 °C | 18600 nM |
| Cc1cnc(Nc2ccc(N3CCN(C)CC3)cc2)nc1Nc1ccc(Cl)c(S(=O)(=O)NC(C)(C)C)c1 | 8.4 ± 0.13 °C | 34 nM |
| CN1CCN(c2ccc(Nc3nc4c(c(Nc5cccc(S(=O)(=O)NC6CC6)c5)n3)CCC4)cc2)CC1 | 4.9 ± 0.099 °C | 520 nM |
| Cc1cnc(Nc2ccc(C(=O)NC3CCN(C)CC3)c(F)c2)nc1Nc1ccc2c(c1)N(S(=O)(=O)C(C)(C)C)CC2 | 12.3 ± 0.116 °C | 8.6 nM |
| CCS(=O)(=O)Nc1cc(Nc2nc(Nc3ccc(N4CCN(C)CC4)cc3)ncc2C)ccc1Cl | 7.93 ± 0.183 °C | 145 nM |

| Structure (SMILES) | ΔTm at 4 µM | IC50 |
| --- | --- | --- |
| CCOC(=O)c1cnc(Nc2ccc(N3CCN(C)CC3)cc2)nc1Nc1cccc(S(=O)(=O)NC(C)(C)C)c1 | -0.0056 ± 0.24 °C | > 20000 nM |
| CCOc1cccc(Nc2nc(Nc3ccc(N4CCN(C)CC4)cc3)ncc2C)c1 | 5.4 ± 0.15 °C | 340 nM |
| CN1CCN(c2ccc(Nc3ncc(Cl)c(Nc4cccc(C(C)(C)C)c4)n3)cc2)CC1 | 0.12 ± 0.053 °C | 19800 nM |
| Cc1cnc(Nc2ccc(CC(=O)N3CCN(C)CC3)cc2)nc1Nc1ccc(Cl)c(NS(=O)(=O)C(C)(C)C)c1 | 9.8 ± 0.03 °C | 12 nM |
| Cc1cnc(Nc2ccc(N3CCN(C)CC3)cc2)nc1Nc1cccc(NC(=O)NC(C)C)c1 | 2.1 ± 0.1 °C | 4300 nM |
| CC(C)NS(=O)(=O)c1cccc(Nc2nc(Nc3ccc(N4CCNCC4)cc3)ncc2Br)c1 | 5 °C | 460 nM |
| Cc1ccc(Nc2nc(Nc3ccc(N4CCN(C)CC4)c(F)c3)ncc2C)cc1S(=O)(=O)NC1CCC1 | 6.8 ± 0.01 °C | 120 nM |
| CN1CCN(c2ccc(Nc3ncc(C(=O)O)c(Nc4cccc(S(=O)(=O)NC(C)(C)C)c4)n3)cc2)CC1 | -0.2 ± 0.2 °C | 25000 nM |
| CC(C)(C)NS(=O)(=O)c1cccc(Nc2nc(Nc3ccc(N4CCNCC4)cc3)ncc2C(F)(F)F)c1 | 2.9 ± 0.031 °C | 2330 nM |
| COc1cc(Nc2nc(Nc3ccc(N4CCNCC4)cc3)ncc2Br)ccc1Cl | 4.5 ± 0.1 °C | 680 nM |
| Cc1cnc(Nc2ccc(N3CCN(C)CC3)cc2)nc1Nc1ccc2c(c1)N(S(=O)(=O)C(C)(C)C)CCC2 | 8.72 ± 0.141 °C | 87.3 nM |
| Cc1cnc(Nc2ccc(N3CCN(C)CC3)cc2)nc1Nc1cccc(NS(=O)(=O)c2ccccc2)c1 | 4.1 ± 0.07 °C | 900 nM |
| CN1CCN(c2ccc(Nc3ncc(Cl)c(Nc4ccc5c(c4)OCO5)n3)cc2)CC1 | 0.073 ± 0.083 °C | 20500 nM |
| CCCS(=O)(=O)Nc1cccc(Nc2nc(Nc3ccc(N4CCN(C)CC4)cc3)ncc2C)c1 | 6.7 ± 0.157 °C | 321 nM |
| COc1ccc(Nc2nc(C)c(C)c(Nc3cccc(S(=O)(=O)NC(C)(C)C)c3)n2)cc1 | 0.22 ± 0.2 °C | 18300 nM |
| COc1cc(Nc2nc(Nc3ccc(N4CCN(C)CC4)cc3)ncc2Cl)cc(OC)c1 | 3.5 ± 0.17 °C | 1500 nM |
| COc1cc(Nc2nc(Nc3ccc(N4CCN(C)CC4)cc3)ncc2C(C)C)ccc1Cl | 1.4 ± 0.11 °C | 7400 nM |
| Cc1cnc(Nc2ccc(N3CCN(C)CC3)c(F)c2)nc1Nc1cccc(NS(=O)(=O)C2(C)CC2)c1 | 9.1 ± 0.05 °C | 20 nM |
| Cc1cnc(Nc2ccc(N3CCN(C)CC3)cc2)nc1Nc1cc(NS(=O)(=O)C2CC2)cc(NS(=O)(=O)C2CC2)c1 | 5.3 ± 0.041 °C | 370 nM |
| Cc1cc(Nc2ncc(C)c(Nc3ccc(Cl)c(NS(=O)(=O)C(C)(C)C)c3)n2)ccc1N1CCN(C)CC1 | 10.4 ± 0.151 °C | 29.5 nM |
| CCc1cnc(Nc2ccc(N3CCN(C)CC3)cc2)nc1Nc1cccc(S(=O)(=O)NC(C)(C)C)c1 | 3.2 °C | 1850 nM |
| CN1CCN(c2ccc(Nc3ncc(F)c(Nc4cccc(NS(=O)(=O)C(C)(C)C)c4)n3)cc2)CC1 | 5.2 ± 0.15 °C | 400 nM |
